# From ChEMBL document CHEMBL1132622, “Synthesis, structure-activity relationships, and in vivo evaluations of substituted di-tert-butylphenols as a novel class of potent, selective, and orally active cyclooxygenase-2 inhibitors. 2. 1,3,4- and 1,2,4-thiadiazole series” (J Med Chem, 1999)
# pIC50: −log10 of the molar value.
# Molecular target: T1, Prostaglandin G/H synthase 2 (Homo sapiens, UniProt P35354)
# T1 sequence (P35354 whole entry): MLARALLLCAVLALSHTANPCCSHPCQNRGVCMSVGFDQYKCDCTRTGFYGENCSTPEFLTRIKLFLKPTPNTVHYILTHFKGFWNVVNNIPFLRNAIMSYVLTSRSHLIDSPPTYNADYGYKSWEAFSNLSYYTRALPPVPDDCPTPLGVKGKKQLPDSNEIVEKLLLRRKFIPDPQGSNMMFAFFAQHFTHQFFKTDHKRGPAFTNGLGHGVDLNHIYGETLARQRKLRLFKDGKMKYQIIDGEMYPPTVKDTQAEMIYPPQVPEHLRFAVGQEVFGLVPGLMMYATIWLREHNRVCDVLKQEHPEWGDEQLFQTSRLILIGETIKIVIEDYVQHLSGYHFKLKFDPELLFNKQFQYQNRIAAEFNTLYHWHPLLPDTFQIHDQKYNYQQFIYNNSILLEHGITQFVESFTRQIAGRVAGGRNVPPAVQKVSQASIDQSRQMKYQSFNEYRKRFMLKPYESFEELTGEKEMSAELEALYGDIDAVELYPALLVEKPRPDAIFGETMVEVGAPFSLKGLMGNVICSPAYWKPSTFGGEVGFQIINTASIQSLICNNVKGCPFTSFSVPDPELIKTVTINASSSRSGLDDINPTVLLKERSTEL
# Test: Inhibition of recombinant human prostaglandin G/H synthase 2 (COX-2)
row,pIC50,Structure (SMILES)
1,< 4.70,CC(C)Sc1nnc(-c2cc(C(C)(C)C)c(O)c(C(C)(C)C)c2)s1
2,< 4.70,CC(C)(C)c1cc(-c2nsc(NS(C)(=O)=O)n2)cc(C(C)(C)C)c1O
3,4.57,CC(C)(C)c1cc(-c2nsc(N=C(N)N)n2)cc(C(C)(C)C)c1O

row,Structure (SMILES),pIC50
1,CCSc1nnc(-c2cc(C(C)(C)C)c(O)c(C(C)(C)C)c2)o1,5.19
2,CSc1nnc(-c2cc(C(C)(C)C)c(O)c(C(C)(C)C)c2)s1,6.82

# Molecular target: T2, Prostaglandin G/H synthase 1 (Ovis aries, UniProt P05979)
# T2 sequence (P05979 whole entry): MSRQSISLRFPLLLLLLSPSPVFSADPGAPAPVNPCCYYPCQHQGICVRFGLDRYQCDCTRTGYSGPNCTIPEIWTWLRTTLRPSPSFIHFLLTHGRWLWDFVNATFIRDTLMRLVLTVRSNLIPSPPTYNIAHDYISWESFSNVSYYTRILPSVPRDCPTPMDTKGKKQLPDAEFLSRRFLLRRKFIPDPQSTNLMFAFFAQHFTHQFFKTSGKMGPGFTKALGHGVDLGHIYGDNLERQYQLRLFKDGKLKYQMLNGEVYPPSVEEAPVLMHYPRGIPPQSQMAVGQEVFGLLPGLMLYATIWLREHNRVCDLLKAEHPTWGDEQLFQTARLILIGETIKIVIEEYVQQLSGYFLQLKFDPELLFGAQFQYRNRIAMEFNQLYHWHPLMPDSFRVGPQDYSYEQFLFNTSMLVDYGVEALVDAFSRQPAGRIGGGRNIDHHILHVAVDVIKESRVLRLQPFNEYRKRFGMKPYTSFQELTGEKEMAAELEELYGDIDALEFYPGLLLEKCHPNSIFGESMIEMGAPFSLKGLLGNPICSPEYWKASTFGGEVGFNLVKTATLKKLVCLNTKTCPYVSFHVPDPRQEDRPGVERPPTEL
# Test: IC50 value against ovine Prostaglandin G/H synthase 1
row,pIC50,Structure (SMILES)
1,4.92,CSc1nnc(-c2cc(C(C)(C)C)c(O)c(C(C)(C)C)c2)o1
2,4.70,CC(C)(C)c1cc(-c2nnc(S)s2)cc(C(C)(C)C)c1O
3,7.01,CSc1nnc(-c2nc(C(C)(C)C)c(O)c(C(C)(C)C)n2)s1
4,< 4.70,CC(C)Sc1nnc(-c2cc(C(C)(C)C)c(O)c(C(C)(C)C)c2)s1
5,< 4.70,CC(C)(C)c1cc(-c2nsc(NS(C)(=O)=O)n2)cc(C(C)(C)C)c1O
6,4.62,CC(C)(C)c1cc(-c2nsc(N=C(N)N)n2)cc(C(C)(C)C)c1O

row,Structure (SMILES),pIC50
1,CCSc1nnc(-c2cc(C(C)(C)C)c(O)c(C(C)(C)C)c2)o1,< 4.70
2,CSc1nnc(-c2cc(C(C)(C)C)c(O)c(C(C)(C)C)c2)s1,6.29

# Organism: Rattus norvegicus
# Test: ED50 was measured by CFE assay method.
# Assay type: functional
row,Structure (SMILES),ED50 [mg/kg]
1,CS(=O)(=O)Nc1ccc([N+](=O)[O-])cc1OC1CCCCC1 [NS-398],0.61
2,COc1ccc2c(c1)c(CC(=O)O)c(C)n2C(=O)c1ccc(Cl)cc1 [INDOMETHACIN],1.6
3,CCSc1nnc(-c2cc(C(C)(C)C)c(O)c(C(C)(C)C)c2)s1.C[N+](C)(C)CC[O-],7.1

# Organism: Rattus norvegicus
# Test: ED50 was measured by hyperalgesia assay method.
# Assay type: functional
row,Structure (SMILES),ED50 [mg/kg]
1,CS(=O)(=O)Nc1ccc([N+](=O)[O-])cc1OC1CCCCC1 [NS-398],7.4
2,COc1ccc2c(c1)c(CC(=O)O)c(C)n2C(=O)c1ccc(Cl)cc1 [INDOMETHACIN],0.6

# Organism: Rattus norvegicus
# Test: Percentage inhibition of the prostaglandin synthesis was measured in rats.
# Assay type: functional
row,Structure (SMILES),Inhibition [%]
1,CS(=O)(=O)Nc1ccc([N+](=O)[O-])cc1OC1CCCCC1 [NS-398],30.7
2,COc1ccc2c(c1)c(CC(=O)O)c(C)n2C(=O)c1ccc(Cl)cc1 [INDOMETHACIN],13.36
3,CCSc1nnc(-c2cc(C(C)(C)C)c(O)c(C(C)(C)C)c2)s1.C[N+](C)(C)CC[O-],77.4

# Organism: Rattus norvegicus
# Test: Percentage of gastric damage was measured in rats.
# Assay type: functional, Stomach
row,Structure (SMILES),Damaged area [%]
1,CS(=O)(=O)Nc1ccc([N+](=O)[O-])cc1OC1CCCCC1 [NS-398],0
2,COc1ccc2c(c1)c(CC(=O)O)c(C)n2C(=O)c1ccc(Cl)cc1 [INDOMETHACIN],0.18
3,CCSc1nnc(-c2cc(C(C)(C)C)c(O)c(C(C)(C)C)c2)s1.C[N+](C)(C)CC[O-],0.05

# Organism: Rattus norvegicus
# Test: Lesion frequency was measured in rats.
# Assay type: functional
row,Structure (SMILES),Lesion frequency [%]
1,CS(=O)(=O)Nc1ccc([N+](=O)[O-])cc1OC1CCCCC1 [NS-398],0
2,COc1ccc2c(c1)c(CC(=O)O)c(C)n2C(=O)c1ccc(Cl)cc1 [INDOMETHACIN],75
3,CCSc1nnc(-c2cc(C(C)(C)C)c(O)c(C(C)(C)C)c2)s1.C[N+](C)(C)CC[O-],12.5

# Molecular target: Prostaglandin G/H synthase 1 (Homo sapiens, UniProt P23219)
# Test: IC50 value against Prostaglandin G/H synthase 1 of human platelet rich plasma
# Assay type: cell-free
# Chain of Prostaglandin G/H synthase 1 (Homo sapiens, UniProt P23219) (P23219 whole entry): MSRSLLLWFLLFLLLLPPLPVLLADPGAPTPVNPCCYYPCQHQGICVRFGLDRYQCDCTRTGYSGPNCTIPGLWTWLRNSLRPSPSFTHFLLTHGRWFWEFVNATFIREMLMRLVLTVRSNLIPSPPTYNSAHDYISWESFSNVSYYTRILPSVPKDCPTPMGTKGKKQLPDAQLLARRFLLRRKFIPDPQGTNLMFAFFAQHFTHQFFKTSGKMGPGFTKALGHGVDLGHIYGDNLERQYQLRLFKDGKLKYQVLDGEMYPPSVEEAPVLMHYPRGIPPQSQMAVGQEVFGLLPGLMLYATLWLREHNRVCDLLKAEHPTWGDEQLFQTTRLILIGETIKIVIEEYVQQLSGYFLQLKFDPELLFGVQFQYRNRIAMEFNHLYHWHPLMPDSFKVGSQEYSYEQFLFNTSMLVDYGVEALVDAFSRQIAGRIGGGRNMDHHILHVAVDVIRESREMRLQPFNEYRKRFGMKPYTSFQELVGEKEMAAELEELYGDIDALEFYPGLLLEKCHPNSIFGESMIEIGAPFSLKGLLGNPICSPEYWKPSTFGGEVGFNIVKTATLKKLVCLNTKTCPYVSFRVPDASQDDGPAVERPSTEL
row,pIC50,Structure (SMILES)
1,5.92,CSc1nnc(-c2cc(C(C)(C)C)c(O)c(C(C)(C)C)c2)o1
2,< 4.70,CC(C)(C)c1cc(-c2nnc(S)s2)cc(C(C)(C)C)c1O
3,6.70,CSc1nnc(-c2nc(C(C)(C)C)c(O)c(C(C)(C)C)n2)s1
4,4.87,CC(C)Sc1nnc(-c2cc(C(C)(C)C)c(O)c(C(C)(C)C)c2)s1
5,5.77,CC(C)(C)c1cc(-c2nsc(N=C(N)N)n2)cc(C(C)(C)C)c1O

row,Structure (SMILES),pIC50
1,CCSc1nnc(-c2cc(C(C)(C)C)c(O)c(C(C)(C)C)c2)o1,5.72
2,CSc1nnc(-c2cc(C(C)(C)C)c(O)c(C(C)(C)C)c2)s1,6.74

# Molecular target: T3, Prostaglandin G/H synthase 2 (Mus musculus, UniProt Q05769)
# T3 sequence (Q05769 whole entry): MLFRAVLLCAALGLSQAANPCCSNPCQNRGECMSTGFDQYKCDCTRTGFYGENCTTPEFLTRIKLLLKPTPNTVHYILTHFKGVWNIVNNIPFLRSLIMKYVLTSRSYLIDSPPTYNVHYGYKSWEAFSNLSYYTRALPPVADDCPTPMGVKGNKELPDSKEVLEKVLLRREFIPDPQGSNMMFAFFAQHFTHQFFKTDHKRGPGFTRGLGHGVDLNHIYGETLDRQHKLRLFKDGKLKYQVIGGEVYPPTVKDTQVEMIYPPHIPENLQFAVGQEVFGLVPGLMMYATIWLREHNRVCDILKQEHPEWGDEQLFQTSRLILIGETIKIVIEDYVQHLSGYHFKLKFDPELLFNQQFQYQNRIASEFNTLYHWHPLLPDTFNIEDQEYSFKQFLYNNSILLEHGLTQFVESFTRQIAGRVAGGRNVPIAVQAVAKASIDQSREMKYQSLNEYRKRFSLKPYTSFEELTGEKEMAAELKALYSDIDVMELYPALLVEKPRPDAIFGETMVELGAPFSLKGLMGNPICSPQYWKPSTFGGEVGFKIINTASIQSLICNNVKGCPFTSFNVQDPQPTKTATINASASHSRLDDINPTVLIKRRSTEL
# Description: IC50 value against Prostaglandin G/H synthase 2 of murine J774A.1 cell line
row,pIC50,Structure (SMILES)
1,6.85,CSc1nnc(-c2cc(C(C)(C)C)c(O)c(C(C)(C)C)c2)o1
2,6.46,CC(C)(C)c1cc(-c2nnc(S)s2)cc(C(C)(C)C)c1O
3,7.59,CSc1nnc(-c2nc(C(C)(C)C)c(O)c(C(C)(C)C)n2)s1
4,5.07,CC(C)Sc1nnc(-c2cc(C(C)(C)C)c(O)c(C(C)(C)C)c2)s1
5,< 4.70,CC(C)(C)c1cc(-c2nsc(N=C(N)N)n2)cc(C(C)(C)C)c1O

row,Structure (SMILES),pIC50
1,CCSc1nnc(-c2cc(C(C)(C)C)c(O)c(C(C)(C)C)c2)o1,7.82
2,CSc1nnc(-c2cc(C(C)(C)C)c(O)c(C(C)(C)C)c2)s1,8.05
